How the values were obtained:
Conditions in all cases: 72 h
Caco-2 [1] = experiment: cell viability relative to DMSO; higher = less toxic
Calu-3 [2] = experiment: as above
HepG2 [3] = experiment: as above
U2OS [4] = experiment: as above
Vero E6 [5] = experiment: as above
Caco-2 [6] = experiment: relative viability EC50 (midpoint between 100% and the lowest measured viability); higher = less toxic
Calu-3 [7] = experiment: as above
HepG2 [8] = experiment: as above
U2OS [9] = experiment: as above
Vero E6 [10] = experiment: as above
Caco-2 [11] = experiment: drug sensitivity score (DSS) for viability; higher = more toxic; extreme values may be limits of the assay
Calu-3 [12] = experiment: as above
HepG2 [13] = experiment: as above
U2OS [14] = experiment: as above
Vero E6 [15] = experiment: as above

SMILES | cell viability (Caco-2 [1]; 1 nM) [%] | cell viability (Caco-2 [1]; 10 nM) [%] | cell viability (Caco-2 [1]; 100 nM) [%] | cell viability (Caco-2 [1]; 1000 nM) [%] | cell viability (Caco-2 [1]; 10000 nM) [%] | cell viability (Calu-3 [2]; 1 nM) [%] | cell viability (Calu-3 [2]; 10 nM) [%] | cell viability (Calu-3 [2]; 100 nM) [%] | cell viability (Calu-3 [2]; 1000 nM) [%] | cell viability (Calu-3 [2]; 10000 nM) [%] | cell viability (HepG2 [3]; 1 nM) [%] | cell viability (HepG2 [3]; 10 nM) [%] | cell viability (HepG2 [3]; 100 nM) [%] | cell viability (HepG2 [3]; 1000 nM) [%] | cell viability (HepG2 [3]; 10000 nM) [%] | cell viability (U2OS [4]; 1 nM) [%] | cell viability (U2OS [4]; 10 nM) [%] | cell viability (U2OS [4]; 100 nM) [%] | cell viability (U2OS [4]; 1000 nM) [%] | cell viability (U2OS [4]; 10000 nM) [%] | cell viability (Vero E6 [5]; 1 nM) [%] | cell viability (Vero E6 [5]; 10 nM) [%] | cell viability (Vero E6 [5]; 100 nM) [%] | cell viability (Vero E6 [5]; 1000 nM) [%] | cell viability (Vero E6 [5]; 10000 nM) [%] | relative viability EC50 (Caco-2 [6]) [µM] | relative viability EC50 (Calu-3 [7]) [µM] | relative viability EC50 (HepG2 [8]) [µM] | relative viability EC50 (U2OS [9]) [µM] | relative viability EC50 (Vero E6 [10]) [µM] | drug sensitivity score (Caco-2 [11]) | drug sensitivity score (Calu-3 [12]) | drug sensitivity score (HepG2 [13]) | drug sensitivity score (U2OS [14]) | drug sensitivity score (Vero E6 [15])
O=C(Nc1cc(C(F)(F)F)cc(C(F)(F)F)c1)Nc1c(Br)cc(Br)cc1-c1nnn[nH]1 [NS-5806] | 93.7 | 97.8 | 97.1 | 98.2 | 91.7 | 94.2 | 95.4 | 95.3 | 98.2 | 87.9 | 107 | 95.3 | 106 | 96.6 | 108 | 98.6 | 103 | 94.6 | 105 | 98.9 | 98.8 | 99.2 | 105 | 102 | 102 | > 10 | > 10 | > 10 | > 10 | > 10 | 0 | 0 | 0 | 0 | 0
FC(F)(F)c1ccc(CNc2ccc(Cc3c[nH]c4ncccc34)cn2)cc1 [PLX647] | 96 | 102 | 94.7 | 94.2 | 91.3 | 102 | 96.4 | 105 | 93.9 | 94.7 | 100 | 97.6 | 97.4 | 101 | 86.9 | 104 | 97.6 | 101 | 97.7 | 96.4 | 95.7 | 98.8 | 96.7 | 98.5 | 96.8 | > 10 | > 10 | > 10 | > 10 | > 10 | 0 | 0 | 0.1 | 0 | 0
COc1cc(Br)c(Nc2nc(-c3c(C)nc4ncccn34)cs2)c(Br)c1 [PTC-209] | 95.4 | 91.5 | 96.1 | 77.8 | 16.7 | 109 | 102 | 98.9 | 83.2 | 41.2 | 97.1 | 97.5 | 100 | 71.3 | 16.1 | 97.7 | 101 | 98.8 | 55.3 | 11.8 | 99.3 | 99.3 | 95.7 | 43.1 | 15.7 | 1.5 | 1.44 | 1.3 | 0.986 | 0.633 | 8 | 5.7 | 8.7 | 10.4 | 11.7
O=S(=O)(c1ccccc1F)N1CCOc2c(N3CCNCC3)cccc21 [R-1485] | 89.3 | 98.6 | 93 | 96.3 | 95.6 | 96.5 | 100 | 98.8 | 100 | 90.8 | 102 | 101 | 101 | 93.6 | 96.7 | 96.2 | 96.5 | 93.6 | 97.6 | 92.8 | 105 | 105 | 99.2 | 97.3 | 108 | > 10 | > 10 | > 10 | > 10 | > 10 | 0 | 0 | 0 | 0 | 0
Cc1nn(-c2ccccc2)c(C)c1/C=N/N1CCN(Cc2ccccc2)CC1 [SANT-1] | 105 | 102 | 99.2 | 94 | 104 | 98.6 | 93.8 | 93.1 | 81.7 | 94.3 | 87.1 | 92.3 | 87 | 99.7 | 74.1 | 105 | 98.3 | 102 | 99.5 | 102 | 98.1 | 99.7 | 94.6 | 102 | 106 | > 10 | > 10 | > 10 | > 10 | > 10 | 0 | 0.2 | 0 | 0 | 0
O=S(=O)(NCCCCCCc1ccccc1)c1cccc2c(Cl)cccc12 [SC-9] | 91.8 | 89 | 87.2 | 101 | 94.5 | 102 | 108 | 102 | 96.8 | 101 | 105 | 96.6 | 103 | 108 | 119 | 94.6 | 97.9 | 92.7 | 97.4 | 99.5 | 99 | 101 | 96.8 | 102 | 107 | > 10 | > 10 | > 10 | > 10 | > 10 | 0 | 0 | 0 | 0 | 0

From the supplement of paper PMC13380429
